Measured values from ChEMBL document CHEMBL2440080, “Synthesis and biological evaluation of novel acylhydrazone derivatives as potential antitumor agents” (Bioorg Med Chem, 2013).

Tests used:
M14 = experiment: Cytotoxicity against human M14 cells after 48 hrs by sulforhodamine B assay; format: functional; settings: M14, 48 h
PC-3 = experiment: Cytotoxicity against human PC3 cells after 48 hrs by sulforhodamine B assay; format: functional; settings: PC-3, 48 h
SR = experiment: Cytotoxicity against human SR cells after 48 hrs by sulforhodamine B assay; format: functional
HL-60(TB) = experiment: Cytotoxicity against human HL-60(TB) cells after 48 hrs by sulforhodamine B assay; format: functional; settings: HL-60, 48 h
SF-268 = experiment: Cytotoxicity against human SF268 cells after 48 hrs by sulforhodamine B assay; format: functional; settings: SF-268, 48 h
SNB-75 = experiment: Cytotoxicity against human SNB75 cells after 48 hrs by sulforhodamine B assay; format: functional; settings: SNB-75, 48 h
UACC-62 = experiment: Cytotoxicity against human UACC62 cells after 48 hrs by sulforhodamine B assay; format: functional; settings: UACC-62, 48 h
TK-10 = experiment: Cytotoxicity against human TK10 cells after 48 hrs by sulforhodamine B assay; format: functional; settings: TK-10, 48 h
HOP-92 = experiment: Cytotoxicity against human HOP92 cells after 48 hrs by sulforhodamine B assay; format: functional; settings: HOP-92, 48 h
MOLT-4 = experiment: Cytotoxicity against human MOLT4 cells after 48 hrs by sulforhodamine B assay; format: functional; settings: MOLT-4, 48 h
OVCAR-3 = experiment: Cytotoxicity against human OVCAR3 cells after 48 hrs by sulforhodamine B assay; format: functional; settings: OVCAR-3, 48 h
HOP-62 = experiment: Cytotoxicity against human HOP62 cells after 48 hrs by sulforhodamine B assay; format: functional; settings: HOP-62, 48 h
NCI-H460 = experiment: Cytotoxicity against human NCI-H460 cells after 48 hrs by sulforhodamine B assay; format: functional; settings: NCI-H460, 48 h
IGROV-1 = experiment: Cytotoxicity against human IGROV1 cells after 48 hrs by sulforhodamine B assay; format: functional; settings: IGROV-1, 48 h
OVCAR-4 = experiment: Cytotoxicity against human OVCAR4 cells after 48 hrs by sulforhodamine B assay; format: functional; settings: OVCAR-4, 48 h
DU-145 = experiment: Cytotoxicity against human DU145 cells after 48 hrs by sulforhodamine B assay; format: functional; settings: DU-145, 48 h
CAKI-1 = experiment: Cytotoxicity against human CAKI-1 cells after 48 hrs by sulforhodamine B assay; format: functional; settings: CAKI-1, 48 h
HCT-116 = experiment: Cytotoxicity against human HCT116 cells after 48 hrs by sulforhodamine B assay; format: functional; settings: HCT-116, 48 h
LOX IMVI = experiment: Cytotoxicity against human LOXIMVI cells after 48 hrs by sulforhodamine B assay; format: functional
U-251 = experiment: Cytotoxicity against human U251 cells after 48 hrs by sulforhodamine B assay; format: functional; settings: U-251, 48 h
[1] = Cytotoxicity against human EKVX cells after 48 hrs by sulforhodamine B assay; format: functional
HCT-15 = experiment: Cytotoxicity against human HCT15 cells after 48 hrs by sulforhodamine B assay; format: functional; settings: HCT-15, 48 h
OVCAR-8 = experiment: Cytotoxicity against human OVCAR8 cells after 48 hrs by sulforhodamine B assay; format: functional; settings: OVCAR-8, 48 h
ACHN = experiment: Cytotoxicity against human ACHN cells after 48 hrs by sulforhodamine B assay; format: functional
SF-295 = experiment: Cytotoxicity against human SF295 cells after 48 hrs by sulforhodamine B assay; format: functional; settings: SF-295, 48 h
T47D = experiment: Cytotoxicity against human T47D cells after 48 hrs by sulforhodamine B assay; format: functional
NCI-H322M = experiment: Cytotoxicity against human NCI-H322M cells after 48 hrs by sulforhodamine B assay; format: functional
RPMI-8226 = experiment: Cytotoxicity against human RPMI8226 cells after 48 hrs by sulforhodamine B assay; format: functional; settings: RPMI-8226, 48 h
BT-549 = experiment: Cytotoxicity against human BT549 cells after 48 hrs by sulforhodamine B assay; format: functional; settings: BT-549, 48 h
NCI/ADR-RES = experiment: Cytotoxicity against human NCI/ADR-RES cells after 48 hrs by sulforhodamine B assay; format: functional
CCRF-CEM = experiment: Cytotoxicity against human CCRF-CEM cells after 48 hrs by sulforhodamine B assay; format: functional
KM12 = experiment: Cytotoxicity against human KM12 cells after 48 hrs by sulforhodamine B assay; format: functional; settings: KM12, 48 h
RXF 393 = experiment: Cytotoxicity against human RXF393 cells after 48 hrs by sulforhodamine B assay; format: functional; settings: RXF 393, 48 h
Mus musculus = experiment: Toxicity in athymic nude mouse assessed as survival at 400 mg/kg, ip measured after 2 weeks; format: organism-based; parameters: dose 400 mg/kg, route intraperitoneal; settings: in vivo, 336 h

Row | Structure (SMILES) | GI50 (M14) [nM] | GI50 (PC-3) [nM] | GI50 (SR) [nM] | GI50 (HL-60(TB)) [nM] | GI50 (SF-268) [nM] | GI50 (SNB-75) [nM] | GI50 (UACC-62) [nM] | GI50 (TK-10) [nM] | GI50 (HOP-92) [nM] | GI50 (OVCAR-3) [nM] | GI50 (NCI-H460) [nM] | GI50 (IGROV-1) [nM] | GI50 (OVCAR-4) [nM] | GI50 (DU-145) [nM] | GI50 (CAKI-1) [nM] | GI50 (HCT-116) [nM] | GI50 (LOX IMVI) [nM] | GI50 (U-251) [nM] | GI50 [1] [nM] | GI50 (HCT-15) [nM] | other results
1 | O=C(Cc1ccc(Nc2ccnc(C(F)(F)F)c2)cc1)N/N=C/c1ccccc1O | 2000 | 794 | 316 | 2510 | 2510 | 2000 | 2000 | 7940 | 2510 | 794 | 794 | 794 | 3160 | 5010 | 1000 | 2000 | 1000 | 2000 | 3160 | 631 | GI50 (MOLT-4): 1000 nM; GI50 (HOP-62): 2510 nM; GI50 (OVCAR-8): 2510 nM; GI50 (ACHN): 1580 nM; GI50 (SF-295): 2510 nM; GI50 (T47D): 3980 nM; GI50 (NCI-H322M): 2510 nM; GI50 (RPMI-8226): 1000 nM; GI50 (BT-549): 2510 nM; GI50 (NCI/ADR-RES): 3160 nM; GI50 (CCRF-CEM): 1260 nM; GI50 (KM12): 2000 nM; GI50 (RXF 393): 1580 nM
2 | O=C(N/N=C/c1cc(Cl)ccc1O)c1ccccc1Nc1ccnc(C(F)(F)F)c1 | 316 | 631 | 316 | 316 | 251 | 316 | 398 | 501 | 501 | 501 | 316 | 316 | 251 | 316 | 398 | 200 | 251 | 316 | 200 | 158 | GI50 (MOLT-4): 200 nM; GI50 (HOP-62): 251 nM; GI50 (OVCAR-8): 631 nM; GI50 (ACHN): 316 nM; GI50 (SF-295): 398 nM; GI50 (T47D): 794 nM; GI50 (NCI-H322M): 398 nM; GI50 (RPMI-8226): 158 nM; GI50 (BT-549): 794 nM; GI50 (NCI/ADR-RES): 398 nM; GI50 (CCRF-CEM): 79.4 nM; GI50 (KM12): 631 nM; GI50 (RXF 393): 398 nM
3 | CCOc1cccc(/C=N/NC(=O)c2ccc(Nc3ccnc(C(F)(F)F)c3)cc2)c1O | 1260 | 398 | 251 | 1260 | 1260 | 631 | 794 | 2510 | 631 | 316 | 501 | 501 | 794 | 3980 | 631 | 398 | 631 | 1580 | 1000 | 631 | GI50 (MOLT-4): 251 nM; GI50 (HOP-62): 1260 nM; GI50 (OVCAR-8): 631 nM; GI50 (ACHN): 1000 nM; GI50 (SF-295): 1260 nM; GI50 (T47D): 1580 nM; GI50 (NCI-H322M): 1260 nM; GI50 (RPMI-8226): 398 nM; GI50 (BT-549): 1580 nM; GI50 (NCI/ADR-RES): 3160 nM; GI50 (CCRF-CEM): 501 nM; GI50 (KM12): 1580 nM; GI50 (RXF 393): 398 nM
4 | COc1cccc(/C=N/NC(=O)c2ccccc2Nc2ccnc(C(F)(F)F)c2)c1O | 398 | 200 | 50.1 | 200 | 631 | 251 | 316 | 316 | 158 | 100 | 200 | 25.1 | 126 | 794 | 200 | 316 | 200 | 398 | 251 | 158 | GI50 (MOLT-4): 10 nM; Activity (Mus musculus): Non-toxic; GI50 (HOP-62): 398 nM; GI50 (OVCAR-8): 251 nM; GI50 (ACHN): 100 nM; GI50 (SF-295): 398 nM; GI50 (T47D): 501 nM; GI50 (NCI-H322M): 251 nM; GI50 (RPMI-8226): 158 nM; GI50 (BT-549): 398 nM; GI50 (NCI/ADR-RES): 501 nM; GI50 (CCRF-CEM): 251 nM; GI50 (KM12): 398 nM; GI50 (RXF 393): 200 nM
5 | O=C(N/N=C/c1ccc(O)cc1O)c1cccc(Nc2ccnc(C(F)(F)F)c2)c1 | 631 | 1260 | 398 | 501 | 631 | 6310 | 398 | 2510 | 1580 | 316 | 3160 | 1260 | 501 | 1580 | 3160 | 501 | 501 | 794 | 1000 | 3160 | GI50 (MOLT-4): 631 nM; GI50 (HOP-62): 501 nM; GI50 (OVCAR-8): 631 nM; GI50 (ACHN): 2000 nM; GI50 (SF-295): 2000 nM; GI50 (T47D): 501 nM; GI50 (NCI-H322M): 316 nM; GI50 (RPMI-8226): 3980 nM; GI50 (BT-549): 631 nM; GI50 (NCI/ADR-RES): 3980 nM; GI50 (CCRF-CEM): 398 nM; GI50 (KM12): 2510 nM; GI50 (RXF 393): 1260 nM
6 | CCOc1cccc(/C=N/NC(=O)c2cccc(Nc3ccnc(C(F)(F)F)c3)c2)c1O | 1260 | 1000 | 158 | 251 | 631 | 7940 | 631 | 1260 | 3160 | 200 | 1000 | 794 | 631 | 631 | 1000 | 398 | 631 | 1260 | 794 | 2000 | GI50 (MOLT-4): 316 nM; GI50 (HOP-62): 794 nM; GI50 (OVCAR-8): 794 nM; GI50 (ACHN): 1000 nM; GI50 (SF-295): 2000 nM; GI50 (T47D): 631 nM; GI50 (NCI-H322M): 631 nM; GI50 (RPMI-8226): 2000 nM; GI50 (BT-549): 1580 nM; GI50 (NCI/ADR-RES): 3160 nM; GI50 (CCRF-CEM): 251 nM; GI50 (KM12): 1260 nM; GI50 (RXF 393): 1000 nM
7 | O=C(N/N=C/c1ccc(O)cc1O)c1ccc(Nc2ccnc(C(F)(F)F)c2)cc1 | > 100000 | 20000 | > 100000 | 12600 | 39.8 | 3980 | 50.1 | 50.1 | 15800 | 25.1 | > 100000 | 15800 | 39.8 | 20000 | 50.1 | 39800 | 2510 | 63.1 | 6310 | > 100000 | GI50 (OVCAR-8): 3160 nM; GI50 (ACHN): 31600 nM; GI50 (SF-295): 10 nM; GI50 (T47D): 79.4 nM; GI50 (NCI-H322M): 19.9 nM; GI50 (RPMI-8226): > 100000 nM; GI50 (BT-549): 10 nM; GI50 (NCI/ADR-RES): > 100000 nM; GI50 (CCRF-CEM): 31.6 nM; GI50 (KM12): > 100000 nM; GI50 (RXF 393): 12600 nM
8 | CCOc1cccc(/C=N/NC(=O)Cc2ccc(Nc3ccnc(C(F)(F)F)c3)cc2)c1O | 2000 | 2000 | 316 | 1000 | 1260 | 12600 | 1580 | 3980 | 2000 | 398 | 1580 | 2510 | 794 | 2000 | 2510 | 1260 | 1580 | 1580 | 3980 | 1000 | GI50 (MOLT-4): 501 nM; GI50 (HOP-62): 2510 nM; GI50 (OVCAR-8): 3160 nM; GI50 (ACHN): 1580 nM; GI50 (SF-295): 3980 nM; GI50 (T47D): 2510 nM; GI50 (NCI-H322M): 2510 nM; GI50 (RPMI-8226): 501 nM; GI50 (BT-549): 2510 nM; GI50 (NCI/ADR-RES): 3980 nM; GI50 (CCRF-CEM): 316 nM; GI50 (KM12): 3980 nM; GI50 (RXF 393): 3160 nM
